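Cultured in 96-well plates, cells were exposed to test compound for 48 hours across five concentrations. GI50 = concentration required for 50% inhibition of growth. The concentration for full growth arrest is given as TGI.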 *1 amine or outer side, *2 acyl side, *3 side chain or, on linkers, in order; H or OH if unused. Where a SMILES comes first, the peptide text is derived from it. Bridges are numbered along the chain shown (N, C = ends). [ ]: non-standard residue; d: D form. The star is where a group is joined. Phe(3,5-F2) = N[C@@H](Cc1cc(F)cc(F)c1)C(=O)O; Pro(4R-Me) = C[C@H]1CN[C@H](C(=O)O)C1; aThr = C[C@H](O)[C@H](N)C(=O)O; Pip = O=C(O)[C@@H]1CCCCN1; X10 = Fc1cc(C2CC2)ccc1N*; Abu = CC[C@H](N)C(=O)O; CO = O=C([*:1])[*:2]
Assays:
Experiment in all cases: inhibition of tumour cell growth, NCI panel, 48 h
CCRF-CEM leukemia = system: CCRF-CEM leukemia
NCI-H460 lung = system: NCI-H460 lung
HOP-92 NSCLC = system: HOP-92 NSCLC
MCF7 breast = system: MCF7 breast
MDA-MB-435 = system: MDA-MB-435
HT29 colon = system: HT29 colon
MOLT-4 leukemia = system: MOLT-4 leukemia
OVCAR-4 ovarian = system: OVCAR-4 ovarian
BT-549 breast = system: BT-549 breast
SR leukemia = system: SR leukemia
NCI-H522 lung = system: NCI-H522 lung
OVCAR-8 ovarian = system: OVCAR-8 ovarian
COLO 205 colon = system: COLO 205 colon
SW-620 colon = system: SW-620 colon
K-562 leukemia = system: K-562 leukemia
RPMI-8226 leukemia = system: RPMI-8226 leukemia
RXF 393 renal = system: RXF 393 renal
PC-3 prostate = system: PC-3 prostate
SF-268 CNS = system: SF-268 CNS
UO-31 renal = system: UO-31 renal
HOP-62 NSCLC = system: HOP-62 NSCLC
LOX IMVI melanoma = system: LOX IMVI melanoma
HL-60(TB) leukemia = system: HL-60(TB) leukemia
CAKI-1 renal = system: CAKI-1 renal
IGROV1 ovarian = system: IGROV1 ovarian
NCI-H23 lung = system: NCI-H23 lung
UACC-257 melanoma = system: UACC-257 melanoma
SF-295 CNS = system: SF-295 CNS
MDA-MB-231 breast = system: MDA-MB-231 breast
TK-10 renal = system: TK-10 renal
SK-OV-3 ovarian = system: SK-OV-3 ovarian
NCI-H226 lung = system: NCI-H226 lung
U251 CNS = system: U251 CNS
SNB-75 CNS = system: SNB-75 CNS
SN12C renal = system: SN12C renal
SK-MEL-2 melanoma = system: SK-MEL-2 melanoma
SF-539 CNS = system: SF-539 CNS
HCT-116 colon = system: HCT-116 colon
HCC-2998 colon = system: HCC-2998 colon
HS 578T breast = system: HS 578T breast
T-47D breast = system: T-47D breast
SNB-19 CNS = system: SNB-19 CNS
DU-145 prostate = system: DU-145 prostate
MALME-3M melanoma = system: MALME-3M melanoma
NCI/ADR-RES ovarian = system: NCI/ADR-RES ovarian
SK-MEL-5 melanoma = system: SK-MEL-5 melanoma
KM12 colon = system: KM12 colon
UACC-62 melanoma = system: UACC-62 melanoma
HCT-15 colon = system: HCT-15 colon
A549 NSCLC = system: A549 NSCLC
OVCAR-5 ovarian = system: OVCAR-5 ovarian
A498 renal = system: A498 renal
SK-MEL-28 melanoma = system: SK-MEL-28 melanoma
EKVX NSCLC = system: EKVX NSCLC
ACHN renal = system: ACHN renal
M14 melanoma = system: M14 melanoma
786-0 renal = system: 786-0 renal
OVCAR-3 ovarian = system: OVCAR-3 ovarian

Structure (SMILES): CC[C@@H]1NC(=O)[C@@H]2CCCCN2C(=O)[C@@H]2CCCN2C(=O)[C@@H](NC(=O)[C@H](Cc2cc(F)cc(F)c2)NC(=O)Nc2ccc(C3CC3)cc2F)[C@H](C)OC(=O)[C@@H]2C[C@@H](C)CN2C1=O ({X10-CO}-[Phe(3,5-F2)][aThr]P[Pip][Abu][Pro(4R-Me)]; ester 2-C)
- GI50 (CCRF-CEM leukemia): 60.3 nM
- TGI (CCRF-CEM leukemia): > 100000 nM
- GI50 (NCI-H460 lung): 45.9 nM
- TGI (NCI-H460 lung): 2620 nM
- GI50 (HOP-92 NSCLC): 54.7 nM
- TGI (HOP-92 NSCLC): 4060 nM
- GI50 (MCF7 breast): 43.7 nM
- TGI (MCF7 breast): 14900 nM
- GI50 (MDA-MB-435): 49 nM
- TGI (MDA-MB-435): 1720 nM
- GI50 (HT29 colon): 70.9 nM
- TGI (HT29 colon): 5490 nM
- GI50 (MOLT-4 leukemia): 271 nM
- TGI (MOLT-4 leukemia): > 30000 nM
- GI50 (OVCAR-4 ovarian): 37.2 nM
- TGI (OVCAR-4 ovarian): 3260 nM
- GI50 (BT-549 breast): 90.5 nM
- GI50 (SR leukemia): 115 nM
- TGI (SR leukemia): 3380 nM
- GI50 (NCI-H522 lung): 56 nM
- TGI (NCI-H522 lung): 8480 nM
- GI50 (OVCAR-8 ovarian): 42.7 nM
- TGI (OVCAR-8 ovarian): > 100000 nM
- GI50 (COLO 205 colon): 39.7 nM
- TGI (COLO 205 colon): 1290 nM
- GI50 (SW-620 colon): 67.9 nM
- TGI (SW-620 colon): > 43200 nM
- GI50 (K-562 leukemia): 39.1 nM
- TGI (K-562 leukemia): > 100000 nM
- GI50 (RPMI-8226 leukemia): 32.3 nM
- TGI (RPMI-8226 leukemia): 1670 nM
- GI50 (RXF 393 renal): 419 nM
- TGI (RXF 393 renal): 2790 nM
- GI50 (PC-3 prostate): 39.6 nM
- TGI (PC-3 prostate): 13000 nM
- GI50 (SF-268 CNS): 59.1 nM
- TGI (SF-268 CNS): > 49600 nM
- GI50 (UO-31 renal): 326 nM
- TGI (UO-31 renal): 9470 nM
- GI50 (HOP-62 NSCLC): 65.8 nM
- TGI (HOP-62 NSCLC): > 86200 nM
- GI50 (LOX IMVI melanoma): 74.8 nM
- TGI (LOX IMVI melanoma): 4380 nM
- GI50 (HL-60(TB) leukemia): 39.9 nM
- TGI (HL-60(TB) leukemia): 1650 nM
- GI50 (CAKI-1 renal): 54.7 nM
- TGI (CAKI-1 renal): 7250 nM
- GI50 (IGROV1 ovarian): 223 nM
- TGI (IGROV1 ovarian): > 36700 nM
- GI50 (NCI-H23 lung): 65.9 nM
- TGI (NCI-H23 lung): > 28600 nM
- GI50 (UACC-257 melanoma): 48.3 nM
- TGI (UACC-257 melanoma): 6260 nM
- GI50 (SF-295 CNS): 55.2 nM
- TGI (SF-295 CNS): 1540 nM
- GI50 (MDA-MB-231 breast): 44.7 nM
- TGI (MDA-MB-231 breast): 1500 nM
- GI50 (TK-10 renal): 954 nM
- TGI (TK-10 renal): > 39100 nM
- GI50 (SK-OV-3 ovarian): 64.2 nM
- TGI (SK-OV-3 ovarian): 9830 nM
- GI50 (NCI-H226 lung): 63.2 nM
- TGI (NCI-H226 lung): 2570 nM
- GI50 (U251 CNS): 52.4 nM
- TGI (U251 CNS): > 56600 nM
- GI50 (SNB-75 CNS): 66.7 nM
- TGI (SNB-75 CNS): 6190 nM
- GI50 (SN12C renal): 42.9 nM
- TGI (SN12C renal): > 33800 nM
- GI50 (SK-MEL-2 melanoma): 90.2 nM
- TGI (SK-MEL-2 melanoma): 2570 nM
- GI50 (SF-539 CNS): 137 nM
- TGI (SF-539 CNS): 2460 nM
- GI50 (HCT-116 colon): 42.7 nM
- TGI (HCT-116 colon): 1610 nM
- GI50 (HCC-2998 colon): 61.9 nM
- TGI (HCC-2998 colon): 1620 nM
- GI50 (HS 578T breast): 83 nM
- TGI (HS 578T breast): 4980 nM
- GI50 (T-47D breast): 62.7 nM
- TGI (T-47D breast): 8160 nM
- GI50 (SNB-19 CNS): 44.3 nM
- TGI (SNB-19 CNS): > 56500 nM
- GI50 (DU-145 prostate): 59.3 nM
- TGI (DU-145 prostate): > 100000 nM
- GI50 (MALME-3M melanoma): 108 nM
- TGI (MALME-3M melanoma): 2930 nM
- GI50 (NCI/ADR-RES ovarian): 505 nM
- TGI (NCI/ADR-RES ovarian): > 38100 nM
- GI50 (SK-MEL-5 melanoma): 59.2 nM
- TGI (SK-MEL-5 melanoma): 1210 nM
- GI50 (KM12 colon): 258 nM
- TGI (KM12 colon): 3860 nM
- GI50 (UACC-62 melanoma): 81.3 nM
- TGI (UACC-62 melanoma): 2700 nM
- GI50 (HCT-15 colon): 220 nM
- TGI (HCT-15 colon): 2250 nM
- GI50 (A549 NSCLC): 62.5 nM
- TGI (A549 NSCLC): > 65000 nM
- GI50 (OVCAR-5 ovarian): 67.9 nM
- TGI (OVCAR-5 ovarian): 2630 nM
- GI50 (A498 renal): 32 nM
- TGI (A498 renal): 1060 nM
- GI50 (SK-MEL-28 melanoma): 178 nM
- TGI (SK-MEL-28 melanoma): 2420 nM
- GI50 (EKVX NSCLC): 76.7 nM
- TGI (EKVX NSCLC): > 100000 nM
- GI50 (ACHN renal): 237 nM
- TGI (ACHN renal): 6840 nM
- GI50 (M14 melanoma): 50.1 nM
- TGI (M14 melanoma): 1860 nM
- GI50 (786-0 renal): 205 nM
- TGI (786-0 renal): 15800 nM
- GI50 (OVCAR-3 ovarian): 46.3 nM
- TGI (OVCAR-3 ovarian): 2030 nM

Reference: PubChem BioAssay (NCI)
